Test results from US20250134844A1, “THERAPEUTIC USE OF PLEUROMUTILINS” (Nabriva Therapeutics GmbH, priority 2022, published 2025).
In brackets after ≈: the same amount, converted by molar mass. Where two headings read alike, the source gives them in different places.

Assays:
Borreliella spp. = experiment: MIC by broth microdilution against Borreliella isolates; assay type: cell-based; conditions: range over 6 isolates (5 B. burgdorferi, 1 B. garinii)
Experimental: Minimal inhibitory concentrations (MIC) were determined against five (n=5) Borreliella burgdorferi isolates (ATCC 51990, 55131, 35211, 35210, 53899) and one (n=1) Borreliella garinii isolate (ATCC 51991) by broth microdilution technique (Dever, L. L., Jorgensen, J. H., Barbour, A. G. In vitro antimicrobial susceptibility testing of Boreliella burgdorferi: a microdilution MIC method and time-kill studies. J Clin Microbiol. 30(10), 2692-2697. (1992) doi: 10.1128/jcm.30.10.2692-2697.1992; Feng, J., Wang, T., Shi, W., et al. Identification of novel activity against Boreliella burgdorferi persisters using an FDA approved drug library. Emerg Microb Infect 3, e49 (2014) doi: 10.1038/emi.2014.53). The general procedures for broth microdilution were done according to the CLSI guidelines M7 and M100-S31 (CLSI. (2018) Methods for dilution antimicrobial susceptibility tests for bacteria that grow aerobically; Eleventh edition. M07.; CLSI. (2021) Performance Standards for Antimicrobial Susceptibility Testing; Thirty-first Edition. M100-S31).
Briefly, Borreliella spp. were grown at 36° C. under microaerophilic conditions in BSK II medium until the logarithmic or stationary growth phase was reached. The growth phase was determined by semiquantitative measurement of active and dormant cells by fluorescence microscopy of cells stained with the fluorescent dyes SYBR Green I and propidium iodide. An inoculum of 10^5−10^6 spirochetes/mL was used to inoculate broth microdilution plates containing serially 2-fold diluted test compounds.

[1] = test system: T. pallidum cells (Chicago strain); experiment: Rabbit model of intradermal Treponema pallidum infection (syphilis); assay type: in vivo; conditions: for lesion progression past the initial state of mild induration: 40 days observation; for T. pallidum mRNA (tp0574 message normalized to HPRT) in lesion biopsies: day 3 post-treatment initiation; for T. pallidum cells in lesion aspirates by DFM: since day 3 post-treatment initiation
Experimental: The preclinical study to test Lefamulin against T. pallidum was conducted in analogy to an investigation of the antibiotic compound linezolid (Haynes, A. M., Giacani, L., Vall Mayans, M., et al. Efficacy of linezolid on Treponema pallidum, the syphilis agent: A preclinical study. eBioMedicine 65, 103281 (2021). doi: 10.1016/j.ebiom.2021.103281).
In the syphilis infection model, each animal was infected intradermally (ID) with 10^6 freshly harvested, viable and infectious T. pallidum cells (Chicago strain) per site of infection on 10 sites on their shaved backs to induce appearance of primary syphilis lesions. Treponemal viability prior to ID infection was assessed by dark field microscopy (DFM). A dose of infectious treponemes (10^6/site of infection) induces the appearance of an erythematous lesion at the inoculation site within ˜5 days post-inoculation. Overall, the arch of lesion progression from the erythematous stage to the indurated, ulcerated, and healed stages encompasses approximately 4 weeks.
Herein, three groups of three rabbits were infected. Three animals were treated orally with 70 mg/kg Lefamulin every 12 h for 3 days (day 7 to day 10 post-infection). As positive control group, another three animals were treated with Benzathine penicillin G (BPG) as single intramuscular (IM) injection (300,000 units; equivalent w/w to 4.8 million units for humans). One group (n=3) served as untreated control. The cutaneous lesions were monitored macroscopically for clinical development, documented by photography on regular basis and measured for their diameter every day for a period of 40 days.
Treponemal burden within these lesions was assessed by taking needle aspirates from the lesions and analyzing the aspirates for pathogen cell count using DFM as well as quantification of treponemal DNA extracted from the aspirates at day 3, 8, 12, and 16 Additionally, mRNA extracted from lesion biopsies obtained post-treatment initiation was also quantified as a surrogate of viability. The gene copy number of the T. pallidum tp0574 gene was quantified by qPCR. Additionally, the tp0574 gene message was normalized to the message of the rabbit housekeeping gene HPRT to evaluate the burden of viable T. pallidum cells within lesion biopsies.

T. pallidum = experiment: Rabbit infectivity test (RIT) with popliteal lymph nodes; assay type: in vivo; conditions: for orchitis or seroconversion (VDRL, TPPA) of RIT rabbits: 3-months observation period, lymph nodes from treated test rabbits; for seroconversion in FTA-ABS test: RIT rabbits, control animals 3+ reactivity or higher
Text: The test rabbits from Example 3 were used for a subsequent study in a RIT, wherein samples from the popliteal lymph nodes were transferred to new (naïve) rabbits, which were subsequently analyzed for disease symptoms and tested serologically (Haynes, A. M., Giacani, L., Vall Mayans, M., et al. Efficacy of linezolid on Treponema pallidum, the syphilis agent: A preclinical study. eBioMedicine 65, 103281 (2021). Doi: 10.1016/j.ebiom.2021.103281).
Following euthanasia, popliteal lymph nodes (LN) from all the rabbits in the Lefamulin, BPG, and control groups were harvested. Lymph nodes from each rabbit were pooled and homogenized in a solution containing equal amounts of sterile saline and serum from an uninfected rabbit. One milliliter of homogenate from each test rabbit was then inoculated into the left testicle of a naïve rabbit to perform the RIT. For the rabbit, which died at day 3 post-treatment initiation, lymph nodes were harvested and transferred to a RIT rabbit within 1 hour after the animal's death.
Inoculated animals were checked for orchitis twice weekly. Serum was collected monthly for three months and analyzed with two different serological tests, i.e. VDRL (Venereal Disease Research Laboratory; Becton-Dickinson, Franklin Lanes, NJ) and TPPA (Treponema pallidum Particle Agglutination; Fujirebio, Malvern, PA). Also an FTA-ABS test (Fluorescent Treponemal Antibody-Absorption; Trinity Biotech, Jamestown, NY) was performed.

T. pallidum SS14 strain = experiment: In vitro susceptibility in co-culture with rabbit Sf1Ep cells, qPCR of tp0574 gene; assay type: cell-based, Treponema pallidum
Experimental: (§1) The in vitro susceptibility determination essentially followed the protocol described by Edmondson et al. (Edmondson, D. G., Hu, B., Norris, S. J. Long-Term In Vitro Culture of the Syphilis Spirochete Treponema pallidum subsp. pallidum. mBio 9(3) e01153-18. (2018). doi: 10.1128/mBio.01153-18).
(§2) Briefly, 3×10^3 rabbit Sf1Ep cells seeded in 96-well microtiter plates in 150 μl of culture media, were inoculated with the T. pallidum strains Chicago and SS14 at an inoculum of 3×10^3 (counted using dark field microscopy) in TpCM-2 medium that was equilibrated overnight at 34° C. in a microaerophilic environment consisting of 1.5% O2, 3.5% CO2 and 95% N2 supplied as a tri-gas mix. Lefamulin and penicillin G were added from 100-fold concentrated stocks in water to achieve the final test concentrations of 5, 2.5, 0.5, 0.1, 0.02. 0.01. 0.005, and 0.0025 μg/ml for Lefamulin and 60 ng/ml for penicillin G. Then the culture plates were incubated at 34° C. in a tri-gas incubator. Cells were then lysed and the DNA extracted using a Quick DNA-96 kit followed by the quantification of the treponemes by quantitative real-time PCR in triplicate targeting the tp0574 gene (Giacani L, Molini B, Godornes C, Barrett L, Van Voorhis WC, Centurion-Lara A, et al. Quantitative analysis of tpr gene expression in Treponema pallidum isolates: differences among isolates and correlation with T-cell responsiveness in experimental syphilis. Infect Immun. 75(1), 104-12 (2007). doi: 10.1128/IAI.01124-06).

[2] = test system: T. pallidum Chicago strain; experiment: as above; assay type: cell-based, Treponema pallidum; conditions: day 7
Experimental: as §1, §2

[3] = 192 h, stationary growth phase cultures, read after 8 days, read-out: MIC (μg/mL) for Stationary Growth Phase Culture (n = 6)
[4] = logarithmic growth phase cultures, read after 5 or 6 days, read-out: MIC (μg/mL) for Logarithmic Growth Phase Culture (n = 6)

SMILES	MIC (Borreliella spp.; [3]) [µg/mL]	MIC (Borreliella spp.; [4]) [µg/mL]	lesion progression past the initial state of mild induration [1]	T. pallidum mRNA (tp0574 message normalized to HPRT) in lesion biopsies [1]	T. pallidum cells in lesion aspirates by DFM [1]	orchitis or seroconversion (VDRL, TPPA) of RIT rabbits (T. pallidum)	seroconversion in FTA-ABS test (T. pallidum)	other results
CC1(C)S[C@@H]2[C@H](NC(=O)[C@H](N)c3ccc(O)cc3)C(=O)N2[C@H]1C(=O)O [Amoxicillin]	0.03 to 0.12 (≈ 0.0821 to 0.328 µM)	0.03 to 0.12 (≈ 0.0821 to 0.328 µM)						
CC1(C)S[C@@H]2[C@H](NC(=O)Cc3ccccc3)C(=O)N2[C@H]1C(=O)O.CC1(C)S[C@@H]2[C@H](NC(=O)Cc3ccccc3)C(=O)N2[C@H]1C(=O)O.c1ccc(CNCCNCc2ccccc2)cc1 [BPG, Benzathine penicillin G]			None of the lesions in these two groups progressed past the initial state of mild induration	absent	no treponemal bacteria could be found	None of the animals developed orchitis or seroconverted	none of the BGP or Lefamulin treated animals seroconverted	measured sites resolved ([1]; day 9 post-BPG administration): 95%; measured sites resolved ([1]; day 12 post-treatment): 100%
CC[C@H]1OC(=O)[C@H](C)[C@@H](O[C@H]2C[C@@](C)(OC)[C@@H](O)[C@H](C)O2)[C@H](C)[C@@H](O[C@@H]2O[C@H](C)C[C@H](N(C)C)[C@H]2O)[C@](C)(O)C[C@@H](C)C(=O)[C@H](C)[C@@H](O)[C@]1(C)O [Erythromycin]	0.001 to 0.004 (≈ 0.00136 to 0.00545 µM)	0.002 to 0.016 (≈ 0.00273 to 0.0218 µM)						
CO/N=C(\C(=O)N[C@@H]1C(=O)N2C(C(=O)O)=C(CSc3nc(=O)c(=O)[nH]n3C)CS[C@H]12)c1csc(N)n1 [Ceftriaxone]	0.004 to 0.03 (≈ 0.00721 to 0.0541 µM)	0.004 to 0.016 (≈ 0.00721 to 0.0289 µM)						
CO/N=C(\C(=O)N[C@@H]1C(=O)N2C(C(=O)O)=C(COC(N)=O)CS[C@H]12)c1ccco1 [Cefuroxime]	0.016 to 0.25 (≈ 0.0377 to 0.589 µM)	0.016 to 0.25 (≈ 0.0377 to 0.589 µM)						
C=C[C@]1(C)C[C@@H](OC(=O)CS[C@@H]2CC[C@@H](N)C[C@H]2O)[C@]2(C)[C@H](C)CC[C@]3(CCC(=O)[C@H]32)[C@@H](C)[C@@H]1O [Lefamulin, 14-O-{[(1R, 2R, 4R)-4-amino-2-hydroxy-cyclohexylsulfanyl]-acetyl}-mutilin]	0.001 to 0.008 (≈ 0.00197 to 0.0158 µM)	0.001 to 0.008 (≈ 0.00197 to 0.0158 µM)	None of the lesions in these two groups progressed past the initial state of mild induration	absent	no treponemal bacteria could be found	None of the animals developed orchitis or seroconverted	none of the BGP or Lefamulin treated animals seroconverted	mean copy number of tp0574 gene (T. pallidum SS14 strain; SS14 strain, at ≥10 ng/mL Lefamulin, day 7, untreated control 894 copies/μL): 33-124 copies/μL; inhibiting Lefamulin concentration (T. pallidum SS14 strain; T. pallidum SS14 strain, inhibited at 10-20 ng/mL or higher): 10 to 20 ng/mL; mean copy number of tp0574 gene ([2]; Chicago strain, at ≥10 ng/ml Lefamulin, untreated control 13,052 copies/μL): 324-403 copies/μL; MIC ([2]; Treponema pallidum, 168 h, T. pallidum Chicago strain, read-out: minimal inhibitory concentration (MIC)): ≥ 0.01 µg/mL; death in treated group ([1]; 70 mg/kg orally every 12 h, day 3 of treatment, most likely inhalation of Lefamulin caused by reflux): one rabbit died; lesions still measurable ([1]; day 9 post-treatment initiation): 14%; lesion diameter compared to the untreated controls ([1]; day 10 post-infection, end of treatment, p<0.05): significantly lower; day post-treatment initiation by which no induration could be measured at any site ([1]; post-treatment initiation): ≤ 13 days
